Patent publication US12358847B2, “Liquid formulations of urease inhibitors for fertilizers” (Soilgenic Technologies, LLC, priority 2012, dated 2025)

Experiments:
[1] = 25° C.; cited from earlier work
[2] = in vivo; cited from earlier work
[3] = in vivo; cited from earlier work; remark: listed apart in the source
[4] = Maximum Allowable Dosage Level per day (California Proposition 65); cited from earlier work
[5] = Accelerated chemical stability of NBPT solutions at 50 °C, HPLC; settings: 45 days at 50±1° C.
[6] = Dynamic viscosity of protic solvents with DMSO vs. NMP co-solvent (Brookfield viscometer); assay type: physicochemical; settings: 21° C.; in propylene glycol, glycerin, MIPA
Text: Dynamic viscosity measurements were collected for propylene glycol, glycerin, and a representative alkanolamine (monoisopropanolamine, MIPA) with increasing levels of DMSO and NMP. A Brookfield LVDV-E digital rotational viscometer with LVDV-E spindle set (Brookfield Engineering Labs, Inc., Middleboro, Mass.) was employed for this work and was calibrated using Cannon […] general purpose, synthetic base oil viscosity calibration standard solution (Cannon Instrument Company, State College, PA). The sampling was conducted at 21° C.

CC(O)CO (stereo not shown) [propylene glycol]
dynamic viscosity [1]: 48.8 centipoise

CN1CCCC1=O [N-methyl pyrrolidone, reference compound]
Dermal LD-50 [2]: 8,000 | Oral LD-50 [3]: 3,914 | Inhalation toxicity (MADL) [4]: 3200 µg/day

CCCCNP(N)(N)=S [NBPT, N-(n-butyl) thiophosphoric triamide]
NBPT deterioration at elevated temperature ([5]; solution of example 4: 50% PG, 25% DMSO, 25% NBPT): did not have significant deterioration | NBPT deterioration at elevated temperature ([5]; solution of example 6: 35% PG, 40% DMSO, 25% NBPT): did not have significant deterioration | NBPT deterioration at elevated temperature ([5]; solution of example 8: 20% PG, 40% DMSO, 40% NBPT): did not have significant deterioration | NBPT deterioration at elevated temperature ([5]; solution of example 10: 48.5% glycerine, 1.5% methanol, 25% DMSO, 25% NBPT): did not have significant deterioration | NBPT deterioration at elevated temperature ([5]; solution of example 12: 33.5% glycerine, 1.5% methanol, 25% DMSO, 40% NBPT): did not have significant deterioration

C[S+](C)[O-] [Dimethyl sulfoxide, dimethyl sulfoxide]
reducing the viscosity of viscous formulations, DMSO vs. NMP [6]: virtually no difference | Dermal LD-50 [2]: 40,000 | Oral LD-50 [3]: 14,500-28,300 | Inhalation toxicity (MADL) [4]: None established
